According to ChEMBL document CHEMBL1144797, “Synthesis and antimicrobial activity of 7 alpha-amino-23,24-bisnor-5 alpha-cholan-22-ol derivatives” (Bioorg Med Chem Lett, 2008):
In brackets after ≈: the same amount, converted by molar mass.

Columns and labels:
Streptococcus pyogenes [1] = assay: Antimicrobial activity against Streptococcus pyogenes 308A; type: functional
Salmonella typhimurium = assay: Antimicrobial activity against Salmonella Typhimurium; type: functional, Salmonella enterica subsp. enterica serovar Typhimurium; details: Salmonella enterica
Enterobacter cloacae = assay: Antimicrobial activity against Enterobacter cloacae 1321E; type: functional
Streptococcus pyogenes [2] = assay: Antimicrobial activity against Streptococcus pyogenes 77A; type: functional
Pseudomonas aeruginosa [3] = assay: Antimicrobial activity against Pseudomonas aeruginosa 1771M; type: functional
Staphylococcus aureus = assay: Antimicrobial activity against Staphylococcus aureus 503; type: functional
Escherichia coli = assay: Antimicrobial activity against Escherichia coli DC2; type: functional
Pseudomonas aeruginosa [4] = assay: Antimicrobial activity against Pseudomonas aeruginosa 9027; type: functional
[5] = Hemolytic activity against RBC at 100 ug/ml; type: ADME, cell-based; details: erythrocyte

Row | Compound | MIC (Streptococcus pyogenes [1]) | MIC (Salmonella typhimurium) | MIC (Enterobacter cloacae) | MIC (Streptococcus pyogenes [2]) | MIC (Pseudomonas aeruginosa [3]) | MIC (Staphylococcus aureus) | MIC (Escherichia coli) | MIC (Pseudomonas aeruginosa [4]) | Activity [5]
1 | C[C@H](CO)[C@H]1CC[C@H]2[C@@H]3[C@H](N)C[C@H]4C[C@@H](NCCCNCCCCN)CC[C@]4(C)[C@H]3CC[C@]12C.Cl.Cl.Cl.Cl | 12.5 mg/L | > 100 mg/L | > 100 mg/L | 25 mg/L | > 100 mg/L | 12.5 mg/L | 50 mg/L | 25 mg/L | –
2 | C[C@H](CO)[C@H]1CC[C@H]2[C@@H]3[C@H](N)C[C@H]4C[C@@H](NCCCNCCCCNCCCN)CC[C@]4(C)[C@H]3CC[C@]12C.Cl.Cl.Cl.Cl.Cl | 3.1 mg/L | > 100 mg/L | > 100 mg/L | 25 mg/L | 50 mg/L | 6.3 mg/L | 50 mg/L | 6.3 mg/L | –
3 | C[C@H](CO)[C@H]1CC[C@H]2[C@@H]3[C@H](N)C[C@H]4C[C@H](NCCCNCCCCNCCCN)CC[C@]4(C)[C@H]3CC[C@]12C.Cl.Cl.Cl.Cl.Cl | 6.3 mg/L | > 100 mg/L | > 100 mg/L | 25 mg/L | 25 mg/L | 12.5 mg/L | 50 mg/L | 12.5 mg/L | –
4 | C[C@H](CO)[C@H]1CC[C@H]2[C@@H]3[C@H](F)C[C@H]4C[C@@H](NCCCNCCCCN)CC[C@]4(C)[C@H]3CC[C@]12C.Cl.Cl.Cl | 6.3 mg/L | > 100 mg/L | > 100 mg/L | 6.3 mg/L | 3.1 mg/L | 6.3 mg/L | 6.3 mg/L | 6.3 mg/L | –
5 | C[C@H](CO)[C@H]1CC[C@H]2[C@@H]3[C@H](O)C[C@H]4C[C@@H](NCCCNCCCCN)CC[C@]4(C)[C@H]3CC[C@]12C.Cl.Cl.Cl | 25 mg/L | 50 mg/L | 50 mg/L | 25 mg/L | 25 mg/L | 12.5 mg/L | 25 mg/L | 12.5 mg/L | –
6 | C[C@H](COS(=O)(=O)O)[C@H]1CC[C@H]2[C@@H]3[C@H](N)C[C@H]4C[C@H](NCCCNCCCCN)CC[C@]4(C)[C@H]3CC[C@]12C.Cl.Cl.Cl.Cl | 6.3 mg/L | > 100 mg/L | > 100 mg/L | 12.5 mg/L | 50 mg/L | 6.3 mg/L | 25 mg/L | 12.5 mg/L | –
7 | C[C@H](COS(=O)(=O)O)[C@H]1CC[C@H]2[C@@H]3[C@H](N)C[C@H]4C[C@@H](NCCCNCCCCN)CC[C@]4(C)[C@H]3CC[C@]12C.Cl.Cl.Cl.Cl | 25 mg/L | > 100 mg/L | > 100 mg/L | 50 mg/L | > 100 mg/L | 25 mg/L | > 100 mg/L | > 100 mg/L | –

The next lines start with results.

Row | MIC (Streptococcus pyogenes [1]) | MIC (Salmonella typhimurium) | MIC (Enterobacter cloacae) | MIC (Streptococcus pyogenes [2]) | MIC (Pseudomonas aeruginosa [3]) | MIC (Staphylococcus aureus) | MIC (Escherichia coli) | MIC (Pseudomonas aeruginosa [4]) | Compound | Activity [5]
8 | 100 mg/L (≈ 300 µM) | 100 mg/L (≈ 300 µM) | 100 mg/L (≈ 300 µM) | 100 mg/L (≈ 300 µM) | 100 mg/L (≈ 300 µM) | 100 mg/L (≈ 300 µM) | 100 mg/L (≈ 300 µM) | 100 mg/L (≈ 300 µM) | CC(C)[C@H]1CC[C@H]2[C@@H]3[C@H](O)C[C@H]4CC(N)CC[C@]4(C)[C@H]3CC[C@]12C (stereo not given in full) | –
9 | 3.1 mg/L | > 100 mg/L | > 100 mg/L | 6.3 mg/L | > 100 mg/L | 3.1 mg/L | 12.5 mg/L | > 100 mg/L | C[C@H](CO)[C@H]1CC[C@H]2[C@@H]3[C@H](N)C[C@H]4C[C@H](O)CC[C@]4(C)[C@H]3CC[C@]12C.Cl | Active
10 | 12.5 mg/L | > 100 mg/L | > 100 mg/L | 25 mg/L | > 100 mg/L | 12.5 mg/L | > 100 mg/L | 25 mg/L | C[C@H](CO)[C@H]1CC[C@H]2[C@@H]3[C@H](N)C[C@H]4C[C@H](NCCCNCCCCN)CC[C@]4(C)[C@H]3CC[C@]12C.Cl.Cl.Cl.Cl | –
11 | 6.3 mg/L | > 100 mg/L | > 100 mg/L | 12.5 mg/L | > 100 mg/L | 12.5 mg/L | 25 mg/L | > 100 mg/L | C[C@H](CO)[C@H]1CC[C@H]2[C@@H]3[C@H](N)C[C@H]4C[C@@H](O)CC[C@]4(C)[C@H]3CC[C@]12C.Cl | –
12 | 1.6 mg/L | 25 mg/L | 50 mg/L | 3.1 mg/L | 25 mg/L | 3.1 mg/L | 12.5 mg/L | 50 mg/L | C[C@H](CO)[C@H]1CC[C@H]2[C@@H]3[C@H](N)C[C@H]4C[C@H](N)CC[C@]4(C)[C@H]3CC[C@]12C.Cl.Cl | –
13 | 6.3 mg/L | 50 mg/L | 50 mg/L | 6.3 mg/L | 50 mg/L | 6.3 mg/L | 25 mg/L | > 100 mg/L | C[C@H](CO)[C@H]1CC[C@H]2[C@@H]3[C@H](N)C[C@H]4C[C@@H](N)CC[C@]4(C)[C@H]3CC[C@]12C.Cl.Cl | –
